One data set addresses T1, NURR-1/RXRα (Homo sapiens, UniProt P19793).
T1 construct: expressed in transfected cells; host or cells: Cos-7 cells
Put plainly: Transactivation test, NURR-1-Gal4/RXRα, luciferase reporter in Cos-7 cells. Conditions: for Emax: COS-7, induction level relative to reference XCT0135908 at 2×10^−5 M (=100%), read-out: hNurr1_RXRaFL Emax (%); for EC50: Cos-7 cells, NURR-1-Gal4/RXRα, luciferase reporter, read-out: hNurr1_RXRaFL EC50. In kind it is cell-based. (Reporter assays use an easily measured gene product as a stand-in for the process of interest.)

The next data set has as its target T2, NURR-1/RXRγ (Homo sapiens, UniProt P48443).
T2 construct: expressed in transfected cells; host or cells: Cos-7 cells
Put plainly: Transactivation test, NURR-1-Gal4/RXRγ, luciferase reporter in Cos-7 cells. The data set is classed as cell-based. Conditions: for Emax: COS-7, induction level relative to reference XCT0135908 at 2×10^−5 M (=100%), read-out: hNurr1_RXRgFL Emax (%); for EC50: Cos-7 cells, NURR-1-Gal4/RXRγ, luciferase reporter, read-out: hNurr1_RXRgFL EC50.

T2 sequence (P48443 whole entry): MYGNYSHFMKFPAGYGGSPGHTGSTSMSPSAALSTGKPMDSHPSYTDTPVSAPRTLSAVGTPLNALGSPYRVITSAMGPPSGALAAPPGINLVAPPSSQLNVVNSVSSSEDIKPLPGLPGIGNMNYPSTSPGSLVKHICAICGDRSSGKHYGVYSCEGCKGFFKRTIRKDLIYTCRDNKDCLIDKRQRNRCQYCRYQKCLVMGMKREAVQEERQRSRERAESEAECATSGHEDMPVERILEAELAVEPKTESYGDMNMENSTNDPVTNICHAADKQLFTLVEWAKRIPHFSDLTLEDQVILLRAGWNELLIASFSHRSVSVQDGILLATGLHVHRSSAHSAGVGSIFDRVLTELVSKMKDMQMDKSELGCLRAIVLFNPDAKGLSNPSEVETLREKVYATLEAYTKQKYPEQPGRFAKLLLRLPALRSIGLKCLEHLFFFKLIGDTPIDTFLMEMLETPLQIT
T2 sequence (P43354 whole entry partner): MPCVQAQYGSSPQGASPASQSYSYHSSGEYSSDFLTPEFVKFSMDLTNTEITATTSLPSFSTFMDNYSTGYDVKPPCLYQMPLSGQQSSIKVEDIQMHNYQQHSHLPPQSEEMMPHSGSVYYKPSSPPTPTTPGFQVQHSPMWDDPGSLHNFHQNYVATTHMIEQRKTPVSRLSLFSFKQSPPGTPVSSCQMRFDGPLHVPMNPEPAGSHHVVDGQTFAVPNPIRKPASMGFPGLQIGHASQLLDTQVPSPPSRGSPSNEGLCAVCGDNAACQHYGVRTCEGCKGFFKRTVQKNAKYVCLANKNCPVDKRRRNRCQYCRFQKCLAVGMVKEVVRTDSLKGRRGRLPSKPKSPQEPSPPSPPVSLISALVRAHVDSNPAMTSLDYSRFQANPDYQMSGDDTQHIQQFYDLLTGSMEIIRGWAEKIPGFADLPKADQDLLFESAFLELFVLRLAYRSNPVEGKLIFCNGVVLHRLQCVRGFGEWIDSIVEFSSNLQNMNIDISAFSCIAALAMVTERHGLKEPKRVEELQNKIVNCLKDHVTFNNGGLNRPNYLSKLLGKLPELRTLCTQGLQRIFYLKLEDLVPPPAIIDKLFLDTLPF
T2 sequence (P04386 1-147 partner limits assumed): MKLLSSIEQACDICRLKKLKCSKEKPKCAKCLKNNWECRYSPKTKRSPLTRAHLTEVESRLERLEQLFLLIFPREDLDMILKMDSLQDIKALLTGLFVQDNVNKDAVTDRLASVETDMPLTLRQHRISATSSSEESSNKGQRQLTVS
T1 sequence (P19793 whole entry): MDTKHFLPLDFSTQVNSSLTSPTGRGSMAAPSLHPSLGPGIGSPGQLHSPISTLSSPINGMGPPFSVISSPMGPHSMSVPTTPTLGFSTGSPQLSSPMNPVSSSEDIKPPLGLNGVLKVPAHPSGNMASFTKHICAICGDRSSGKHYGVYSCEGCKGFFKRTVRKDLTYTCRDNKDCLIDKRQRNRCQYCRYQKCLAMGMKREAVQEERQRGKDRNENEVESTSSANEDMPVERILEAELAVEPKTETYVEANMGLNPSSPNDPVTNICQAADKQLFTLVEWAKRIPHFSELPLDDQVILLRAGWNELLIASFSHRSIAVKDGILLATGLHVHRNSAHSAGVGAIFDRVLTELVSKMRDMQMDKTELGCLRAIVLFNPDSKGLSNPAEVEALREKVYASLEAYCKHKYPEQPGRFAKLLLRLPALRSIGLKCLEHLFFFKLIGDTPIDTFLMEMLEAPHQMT
T1 sequence (P43354 whole entry partner): as the sequence (P43354 whole entry partner) above
T1 sequence (P04386 1-147 partner limits assumed): as the sequence (P04386 1-147 partner limits assumed) above

By Emax is commonly meant the size of the effect at its maximum, as opposed to the concentration needed. For orientation: EC50 means the midpoint of the concentration-response curve. A word on the melting point: it is the temperature, or range, at which the solid turns liquid. Turning to `CC1(C)Oc2cc(C(F)(F)F)ccc2N(c2cccc(N3CC(C(=O)O)C3)c2)C1=O` [Example 120, 1-[3-[2,2-dimethyl-3-oxo-7-(trifluoremethyl)-1,4-benzoxazin-4-yl]phenyl]azetidine-3-carboxylic acid], the melting point fell in the range of 80 to 86 °C. At NURR-1/RXRα, the Emax was found to be 108% and the EC50 came to 20 nM. Moreover, at NURR-1/RXRγ, the Emax came out at 112% and the EC50 was 34 nM.
On the same counts, the results for `CCC1Oc2cc(C(F)(F)F)ccc2N(c2cccc(N3CC(C(=O)O)C3)c2)C1=O` (centres unmarked) [Example 123, 1-[3-[2-ethyl-3-oxo-7-(trifluromethyl)-1,4-benzoxazin-4-yl]phenyl]azetidine-3-carboxylic acid] are 148 to 152 °C, 90%, 121 nM, 77% and 37 nM.
Regarding `CC1COc2cc(C(F)(F)F)ccc2N1c1cccc(N2CC(C(=O)O)C2)c1` (centres unmarked) [Example 124, 1-[3-[3-methyl-7-(trifluoromethyl)-2,3-dihydro-1,4-benzoxazin-4-yl]phenyl]azetidine-3-carboxyltc add], the melting point is 62 to 70 °C. Besides, at NURR-1/RXRα, the maximal effect (Emax) was found to be 137% and the EC50 is 19 nM. Moreover, on NURR-1/RXRγ, the Emax came to 139% and the EC50 came to 29 nM.
On the same counts, the results for `O=C(O)C1CN(c2cccc(-n3cc(CC4CCC4)c4cc(C(F)(F)F)ccc43)c2)C1` [Example 126, 1-[3-[3-(cyclobutylmethyl)-5-(trifluromethyl)indol-1-yl]phenyl]azetidine-3-carboxylc acid] are 58 to 64 °C, 128%, 1 nM, 116% and 3 nM.
On the same counts, the results for `O=C(O)C1CN(c2cccc(-n3cc(CC4CCOC4)c4cc(C(F)(F)F)ccc43)c2)C1` (centres unmarked) [Example 128, 1-[3-[3-(tetrahydrofuran-3-ylmethyl)-5-(trifluromethyl)indol-1-yl]phenyl]adetidine-3-carboxylic acid] are 63 to 67 °C, 110%, 3 nM, 105% and 6 nM.
In the same order, the values of `O=C(O)C1CN(c2cccc(-n3cc(CN4CCOCC4)c4cc(C(F)(F)F)ccc43)c2)C1` [Example 132, 1-[3-[3-(morpholinomethyl)-5-(trifluoromethyl)indol-1-yl]phenyl]azetidine-3-carboxylic acid] are 93 to 98 °C, 97%, 61 nM, 132% and 133 nM.
Molecule `COCCNCc1cn(-c2cccc(N3CC(C(=O)O)C3)c2)c2ccc(C(F)(F)F)cc12` [Example 133, 1-[3-[3-[(2-methoxyethylamino)methyl]-5-(trifluoromethyl)indol-1-yl]phenyl]azetidine-3-carboxylic acid] yielded a melting point of 116 to 121 °C. Besides, at NURR-1/RXRα, the Emax was determined as 93% and the EC50 was found to be 1020 nM. Besides, on NURR-1/RXRγ, the maximal effect (Emax) amounted to 61% and the EC50 turned out to be 1980 nM.
In the same order, the values of `CC(C)N(C)Cc1cn(-c2cccc(N3CC(C(=O)O)C3)c2)c2ccc(C(F)(F)F)cc12` [Example 134, 1-[3-[3-[[iisopropyl(methyl)amino]methyl]-5-(trifluoromethyl)indol-1-yl]phenyl]azetidine-3-carboxylic acid] are 88 to 95 °C, 89%, 227 nM, 108% and 664 nM.
For the molecule `O=C(O)C1CN(c2cccc(-n3cc(S(=O)(=O)c4ccccc4)c4cc(C(F)(F)F)ccc43)c2)C1` [Example 135, 1-[3-[3-(benzenesulfonyl)-5-(trifluoromethyl)indol-1-yl]phenyl]azetidine-3-carboxylic acid], the melting point was in the range of 150 to 153 °C. On NURR-1/RXRα, the maximum response (Emax) is 77% and the 50% effective concentration (EC50) came to 34 nM. On NURR-1/RXRγ, the Emax came to 83% and the concentration for a half-maximal effect (EC50) stood at 65 nM.
Take `O=C(O)C1CN(c2cccc(N3CC4(CCOCC4)c4cc(C(F)(F)F)ccc43)c2)C1` [Example 141, 1-[3-[5-(trifluoromethyl)spiro[indoline-3,4′-tetrahydropyran]-1-yl]phenyl]azetidine-3-carboxylic acid]: the melting point lay within 154 to 162 °C. Besides, at NURR-1/RXRα, the maximal effect (Emax) turned out to be 92% and the EC50 was determined as 140 nM. In addition, at NURR-1/RXRγ, the maximal effect (Emax) was 113% and the 50% effective concentration (EC50) came to 199 nM.
`O=C(O)C1CN(c2cccc(N3C(=O)C4(CCCC4)c4cc(C(F)(F)F)ccc43)c2)C1` [Example 142, 1-[3-[2′-oxo-5′-(trifluoromethyl)spiro[cyclopentane-1,3′-indoline]-1′-yl]phenyl]azetidine-3-carboxylic acid] returned a melting point of 87 to 91 °C. Also, on NURR-1/RXRα, the Emax amounted to 130% and the EC50 was 11 nM. On NURR-1/RXRγ, the Emax stood at 148% and the concentration giving a half-maximal response (EC50) amounted to 22 nM.
With `O=C(O)C1CN(c2cccc(N3c4ccc(C(F)(F)F)cc4C4CC43)c2)C1` (centres unmarked) [Example 143, 1-[3-[5-(trifluoromethyl)-1a,6b-dihydro-1H-cyclopropa[b]indol-2-yl]phenyl]azetidine-3-carboxylic acid], the melting point was in the range of 67 to 71 °C. Also, at NURR-1/RXRα, the maximum response (Emax) was found to be 97% and the half-maximal effective concentration (EC50) worked out at 18 nM. The EC50 on NURR-1/RXRγ is 45 nM.
`CC1(C)CCC2C(C1)c1cc(C(F)(F)F)ccc1N2c1cccc(N2CC(C(=O)O)C2)c1` (centres unmarked) [Example 145, 1-[3-[3,3-dimethyl-6-(trifluoromethyl)-2,4,4a,9a-tetrahydro-1H-carbazol-9-yl]phenyl]azetidine-3-carboxylic acid] gave a melting point of 96 to 100 °C. Also, on NURR-1/RXRα, the maximal effect (Emax) turned out to be 98% and the EC50 came out at 4 nM. Also, on NURR-1/RXRγ, the Emax turned out to be 96% and the EC50 is 6 nM.
Regarding `O=C(O)C1CN(c2cccc(N3c4ccc(C(F)(F)F)cc4C4CCCC43)c2)C1` (centres unmarked) [Example 146, 1-[3-[7-(trifluoromethyl)-2,3,3a,8b-tetrahydro-1H-cyclopenta[b]indol-4-yl]phenyl]azetidine-3-carboxylic acid], the melting point fell in the range of 61 to 65 °C. On NURR-1/RXRα, the maximum response (Emax) is 96% and the EC50 was determined as 10 nM. In addition, at NURR-1/RXRγ, the Emax stood at 107% and the EC50 amounted to 17 nM.
On the same counts, the results for `CC(C)Cn1c(=O)n(-c2cccc(N3CC(C(=O)O)C3)c2)c2ccc(C(F)(F)F)cc21` [Example 148] are 134 to 144 °C, 122%, 31 nM, 130% and 56 nM.
On the same counts, the results for `Cc1cn(-c2cccc(N3CC(C(=O)NS(C)(=O)=O)C3)c2)c2ccc(C(F)(F)F)cc12` [Example 150, N-methylsulfonyl-1-[3-[3-methyl-5-(trifluoromethyl)indol-1-yl]phenyl]azetidine-3-carboxamide] are 99 to 109 °C, 89%, 4 nM, 79% and 4 nM.
As for `Cc1cn(-c2cccc(N3CC(C(=O)NC4CC4)C3)c2)c2ccc(C(F)(F)F)cc12` [Example 184, N-cyclopropyl-1-[3-[3-methyl-5-(trifluoromethyl)indol-1-yl]phenyl]azetidine-3-carboxamide], the melting point lay within 182 to 184 °C. At NURR-1/RXRα, the Emax came to 90% and the half-maximal effective concentration (EC50) came to 5 nM. Further, at NURR-1/RXRγ, the Emax was 91% and the EC50 was 7 nM.
Regarding `Cc1cn(-c2cccc(N3CC(C(N)=O)C3)c2)c2ccc(C(F)(F)F)cc12` [Example 185, 1-[3-[3-methyl-5-(trifluoromethyl)indol-1-yl]phenyl]azetidine-3-carboxamide], the melting point fell in the range of 160 to 163 °C. For the same molecule, on NURR-1/RXRα, the Emax was determined as 95% and the concentration giving a half-maximal response (EC50) worked out at 5 nM. For the same molecule, on NURR-1/RXRγ, the Emax is 90% and the half-maximal effective concentration (EC50) stood at 7 nM.
In the same order, the values of `CC1(C)CNc2c(cc(OC(F)(F)F)cc2-c2cccc(N3CC(C(=O)O)C3)c2)O1` [Example 188, 1-[3-[2.2-dimethyl-7-(trifluoromethoxy)-3,4-dihydro-1,4-benzoxazin-5-yl]phenyl]azetidine-3-carboxylic acid] are 67 to 74 °C, 100%, 7 nM, 98% and 9 nM.
In the same order, the values of `CC1(C)CNc2c(cc(Cl)cc2-c2cccc(N3CC(C(=O)O)C3)c2)O1` [Example 189, 1-[3-(7-chloro-2,2-dimethyl-3,4-dihydro-1,4-benzoxazin-5-yl)phenyl]azetidine-3-carboxylic acid] are 81 to 88 °C, 110%, 13 nM, 119% and 475 nM.
In the same order, the values of `Cc1cc2c(c(-c3cccc(N4CC(C(=O)O)C4)c3)c1)NCC(C)(C)O2` [Example 190, 1-[3-(2,2,7-trimethyl-3,4-dihydro-1,4-benzoxazin-5-yl)phenyl]azetidine-3-carboxylic acid] are 82 to 90 °C, 110%, 18 nM, 109% and 36 nM.
